Measurements: ChEMBL document CHEMBL1201862, “PubChem BioAssay data set” (2004)
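Test compounds were applied to cells in 96-well plates for 48 hours at 5 doses. GI50: concentration for 50% inhibition of growth.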 The source made the active and inactive calls. No stated cut-off is given here; in the data, active = GI50 up to about 1.1 µM and inactive = higher.

Columns and labels:
Assay in all cases: NCI-60 cell line screen, 48 h
[1] = tested on: LXFL 529
[2] = tested on: HCC 2998
[3] = tested on: MOLT-4
[4] = tested on: LOX IMVI
[5] = tested on: HOP-18
[6] = tested on: SNB-78
[7] = tested on: UACC-257
[8] = tested on: HCT-116
[9] = tested on: SNB-75
[10] = tested on: K562
[11] = tested on: CAKI-1
[12] = tested on: OVCAR-8
[13] = tested on: CCRF-CEM
[14] = tested on: SK-MEL-28
[15] = tested on: 786-0
[16] = tested on: SF-268
[17] = tested on: OVCAR-4

Measured: GI50

C[N+](C)(C)CC1CCCC(C[N+](C)(C)C)C1O (configuration not stated)
inactive: [1] > 100 µM | [2] > 100 µM | [3] > 100 µM | [4] > 100 µM | [5] > 100 µM | [6] > 100 µM | [7] > 100 µM | [8] > 100 µM | [9] > 100 µM | [10] > 100 µM | [11] > 100 µM | [12] > 100 µM | [13] > 100 µM | [14] > 100 µM | [15] > 100 µM | [16] > 100 µM | [17] > 100 µM

CN(C)CC1CCCC(CN(C)C)C1OC(=O)c1ccccc1 (configuration not stated)
inactive: [1] > 100 µM | [2] > 100 µM | [3] > 100 µM | [4] > 100 µM | [5] > 100 µM | [6] > 100 µM | [7] > 100 µM | [8] > 100 µM | [9] > 100 µM | [10] > 100 µM | [11] > 100 µM | [12] > 100 µM | [13] > 100 µM | [14] > 100 µM | [15] > 100 µM | [16] > 100 µM | [17] > 100 µM

O=C(N/C(=C\c1c(O)ccc2ccccc12)c1nc2ccccc2[nH]1)c1ccccc1
inactive: [1] > 100 µM | [2] > 100 µM | [3] > 100 µM | [4] > 100 µM | [5] > 100 µM | [6] > 100 µM | [7] > 100 µM | [8] > 100 µM | [9] 18.8 µM | [10] > 100 µM | [11] > 100 µM | [12] 54.8 µM | [13] > 100 µM | [14] > 100 µM | [15] 39.8 µM | [16] 64.3 µM | [17] > 100 µM

N#CC1(C#N)C=CC(=C2OCC3CCCN23)C=C1 (configuration not stated)
inactive: [1] > 100 µM | [2] > 100 µM | [3] > 100 µM | [4] > 100 µM | [5] > 100 µM | [6] > 100 µM | [7] > 100 µM | [8] > 100 µM | [9] 52.2 µM | [10] > 100 µM | [11] > 100 µM | [12] > 100 µM | [13] 77.1 µM | [15] > 100 µM | [16] > 100 µM | [17] > 100 µM

CC1(C)Cc2cc(C(=O)O)c3c(c2C1=O)COCC3
inactive: [1] > 100 µM | [2] > 100 µM | [3] > 100 µM | [4] > 100 µM | [5] > 100 µM | [6] > 100 µM | [7] > 100 µM | [8] > 100 µM | [9] > 100 µM | [10] > 100 µM | [11] > 100 µM | [12] > 100 µM | [13] > 100 µM | [15] > 100 µM | [16] > 100 µM | [17] > 100 µM

O=c1oc2cc(O)ccc2c2[nH]c3cc(O)ccc3c12
inactive: [1] 27.1 µM | [2] 22.5 µM | [3] 34 µM | [4] 18.5 µM | [5] 50.5 µM | [6] 43.7 µM | [7] 35.2 µM | [8] 17.4 µM | [9] 16.3 µM | [10] 45.9 µM | [12] 27.2 µM | [13] 30.8 µM | [14] 31.7 µM | [15] 30.8 µM | [16] 22.8 µM | [17] 37.4 µM

COc1cc2c(cc1OC)C1(c3ccc(Cl)cc3)ON=C(c3ccccc3)N1CS2 (configuration not stated)
inactive: [1] > 100 µM | [2] > 100 µM | [3] 11 µM | [4] 30.1 µM | [5] > 100 µM | [6] 4.56 µM | [7] > 100 µM | [8] 6.37 µM | [9] > 100 µM | [10] 75.3 µM | [11] > 100 µM | [13] 41 µM | [14] > 100 µM | [15] > 100 µM | [16] > 100 µM | [17] > 100 µM

CC(C)(C)c1cc(CCCCCCCC2(CCCCCCCc3cc(C(C)(C)C)cc(C(C)(C)C)c3)OC(COCCOCCCCCC#N)C(COCCOCCCCCC#N)O2)cc(C(C)(C)C)c1 (configuration not stated)
inactive: [1] > 100 µM | [2] > 100 µM | [4] > 100 µM | [5] > 100 µM | [6] > 100 µM | [7] > 100 µM | [8] > 100 µM | [9] > 100 µM | [10] > 100 µM | [11] > 100 µM | [12] > 100 µM | [13] > 100 µM | [14] > 100 µM | [15] > 100 µM | [16] > 100 µM | [17] > 100 µM

O=C(NC1CCCCCC1)C1C(=O)N(C2CCCCCC2)C(=O)/C1=N\O (configuration not stated)
inactive: [1] 31.8 µM | [2] 19.5 µM | [3] 21.5 µM | [4] 35.6 µM | [5] 48.9 µM | [6] 34.3 µM | [7] 38.8 µM | [8] 17.3 µM | [9] 26.6 µM | [10] 39.1 µM | [11] 40.2 µM | [12] 38.6 µM | [13] 27.2 µM | [14] 30 µM | [15] 32.8 µM | [16] 29.1 µM | [17] 44.1 µM

C[C@@]1(CBr)C[C@@](C)(/C=C/Cl)[C@@H](Cl)C[C@H]1Cl
inactive: [1] 10 µM | [2] 16.1 µM | [3] 4.03 µM | [4] 11.5 µM | [5] 13.5 µM | [6] 2.94 µM | [7] 11.4 µM | [8] 7.03 µM | [9] 16.1 µM | [10] 4.74 µM | [11] 17.3 µM | [12] 13.9 µM | [13] 2.92 µM | [14] 17.5 µM | [15] 14 µM | [16] 15.9 µM | [17] 11.6 µM

O=[N+]([O-])c1cc(/C=N\NS(=O)(=O)c2ccc(Cl)cc2)c(O)c([N+](=O)[O-])c1
inactive: [1] 30.6 µM | [2] 85.7 µM | [3] 29.2 µM | [4] 37.8 µM | [5] 42.3 µM | [6] 38.1 µM | [7] 66.5 µM | [8] 30.1 µM | [9] 24.9 µM | [10] 31.1 µM | [11] 30.5 µM | [12] 23 µM | [13] 24.4 µM | [14] 93.3 µM | [15] 36.1 µM | [16] 38 µM | [17] 36.7 µM

Cc1nnc(N/N=C2\C(=O)Nc3ccccc32)n1N
inactive: [1] > 100 µM | [2] > 100 µM | [3] > 100 µM | [4] > 100 µM | [5] > 100 µM | [6] > 100 µM | [7] > 100 µM | [8] > 100 µM | [9] > 100 µM | [10] 29.6 µM | [11] > 100 µM | [12] > 100 µM | [13] > 100 µM | [14] > 100 µM | [15] > 100 µM | [16] > 100 µM | [17] > 100 µM

O=C(C[n+]1ccccc1)NNC(=O)/C(=C/c1ccc2c(c1)OCO2)NC(=O)c1ccccc1
inactive: [1] 38.7 µM | [2] > 100 µM | [3] 30.4 µM | [4] 20.6 µM | [5] 34.9 µM | [6] > 56.8 µM | [7] > 100 µM | [8] 68.9 µM | [9] 36.7 µM | [10] > 77.4 µM | [11] > 100 µM | [12] 30 µM | [13] 25.9 µM | [14] > 100 µM | [15] 51.4 µM | [16] 49.1 µM | [17] 32.1 µM

COc1cc(Cn2c3ccccc3c3cc(C)c4c(c32)C=CC(C)(CCC=C(C)C)O4)cc2c1[nH]c1ccccc12 (configuration not stated) [CHRESTFOLINE C]
inactive: [1] 88.5 µM | [2] > 100 µM | [3] > 100 µM | [4] > 100 µM | [5] > 100 µM | [6] > 100 µM | [7] > 100 µM | [8] > 100 µM | [9] > 100 µM | [10] > 100 µM | [11] > 100 µM | [12] > 100 µM | [13] > 100 µM | [14] > 100 µM | [15] > 100 µM | [16] > 100 µM | [17] > 100 µM

COc1ccc(/C=C2\CNC/C(=C\c3ccc(OC)cc3)C2=O)cc1
inactive: [1] 21.8 µM | [2] 35.3 µM | [3] 15.8 µM | [4] 4.22 µM | [5] > 100 µM | [6] 28.1 µM | [7] 75.3 µM | [8] 3.24 µM | [9] 30.4 µM | [10] 14.7 µM | [11] 14.1 µM | [12] 16.1 µM | [13] 12.4 µM | [14] 87.9 µM | [15] 46.3 µM | [16] 24.1 µM | [17] 76.9 µM

CC(=O)O/N=C(Cl)/C(Cl)=N/OC(C)=O
inactive: [1] > 100 µM | [2] > 100 µM | [3] > 100 µM | [4] > 100 µM | [5] > 100 µM | [6] > 100 µM | [7] > 100 µM | [8] > 100 µM | [9] > 100 µM | [10] > 100 µM | [11] > 100 µM | [12] > 100 µM | [13] > 100 µM | [14] > 100 µM | [15] > 100 µM | [16] > 100 µM | [17] > 100 µM
